Test results reported in patent publication US4735953A, “Pharmaceutical preparation for learning stimulation and memory improvement” (priority 1986, dated 1988).

Tests used:
patients = test: Clinical study on patients with memory disorders, compared to pyracetam; assay type: in vivo, human
Text: The preparation according to the present invention was studied in clinics on 130 patients.
As regards diagnosis and sex the patients were distributed as follows:
skull-brain traumata with memory disturbance: 75 patients (52 men and 23 women)
Alzheimer's disease: 15 patients (3 men and 12 women)
Pick's disease: 5 patients (5 men)
Senile dementia: 15 patients (4 men and 11 women)
Vascular dementia (cerabral atero-sclerosis, hypertonic disease): 20 patients (7 men and 13 women)
In the group of patients with skull-brain trauma the patient's age varied from 17 to 60 years, in the other patients--from 52 to 75 years.
In addition to clinico-psychopathological methods of investigation, all the patients were subjected to neuropsychological studies during which specific tasks were offered them to solve. In doing so, the response was assessed against a 4-points scale: 3--maximally pronounced disorder, full or substantially full incapability to deal with the task set; 2--a medium degree of manifestation of the deficiency, solving the task with the experimentator's assistance; 1--minor errors, independent correction of mistakes; 0--lack of disturbances.
The treatment course duration is 30-60 days. In the case of an acute skull-brain trauma (65 patients) the treatment started 15-20 days after the moment of trauma and lasted for 20-30 days.
It is known that the function of memory has a complex brain organization and different zones of brains take part in its regulation. During the studies a multi-faceted assessment of the memory function was carried out; there were assessed: (1) mnestic component of the environmental orientation of a patient; (2) involuntary memory for current events; (3) intentional exo-experimental memory; (4) volume and soundness of audio-speaking memory; (5) volume and soundness of visual memory; (6) operative memory; (7) memory for knowledge acquired before the disease.

[1] = test system: learning ability of rats preliminarily sorted out for poor learning ability; test: Active avoidance learning in a shuttle chamber, rats sorted out for poor learning ability; assay type: in vivo, rat; conditions: poorly learning rats
Text: (§1) In these experiments rats are taught to avoid an electric shock by escaping into a next chamber communicating with the first chamber by means of a special opening--a door. An electric current is applied to the chamber door consisting of metal plates. A conditional irritator is a light signal together with a sound click. The learning series consisted of 50 combinations. The number of combinations necessary for the animal's learning to escape into another chamber in response to the conditional signal was determined. Five correct responses out of 6 where regarded as the proof of stability of the acquired knowledge and were denoted as a "learning criterion". After 7 days the educational procedure was repeated, and again the number of combinations necessary to acquire the "learning criterion" was determined. In the case of difference between the first and second readings the percentage of retention of the acquired knowledge was calculated.
(§2) In this experiment the effect of the preparation according to the present invention and prior art preparations was separately evaluated for the purpose of comparison on well-learning and on specially selected poorly learning rats. […] To the poorly learning rats the animals were assigned which reached no "learning criterion" in the teaching series of 50 combinations, or, in other words, a stable knowledge of active avoidance was not worked out in them. […] The preparation according to the present invention and the prior art comparison preparations were administered before the first teaching series or thereafter.
(§3) Also studied were the effects produced upon a single and repeated administration of the preparation according to the present invention for 14 days.

dogs = test: Chronic toxicity, dogs; assay type: in vivo, dog; conditions: hypodermal, 6 months
Text: (§4) The chronic toxicity of the preparation was studied on three species of animals (rats, dogs, rabbits). In chronic tests on the above-mentioned animals the effect of a long-time hypodermal administration of the preparation according to the present invention on the general state and mass of animals, hemogram, cardio-vascular system, breathing central nervous system, functional state of kidneys, liver, thyroid gland was studied. […] The doses of the preparation employed in the experiments surpassed the required dose for a human being (per kilogram of bodymass) by 5-10 times.

rabbits = test: Chronic toxicity, rabbits; assay type: in vivo, rabbit; conditions: hypodermal, 2 months
Text: as §4

[2] = test system: learning ability of rats in a shuttle chamber; test: Active avoidance learning in a shuttle chamber, rats; assay type: in vivo, rat
Text: as §1, §2, §3

[3] = test system: rats persistently choosing the left side of the labyrinth; test: Lateralization of free behaviour in the T-shaped labyrinth; assay type: in vivo, rat; conditions: for Number of runs to the right, Series I / Number of runs to the right, Series II / Number of runs to the right, Series III: 20 animals
Protocol: Also studied was the change of lateralization of free behaviour of rats in the T-shaped labyrinth. In the experiment rats of both sexes with a mass of 180-230 g were used. Preliminary experiments were carried out on 120 animals, then a group of 40 animals was chosen which during 20 days selected the left corridor in the first attempt of running through the labyrinth.
The data on the capacity of the preparation according to the present invention to enhance the domination of one (left) brain hemisphere have been supported in behaviour experiments on rats where the change in lateralization of a free behaviour of rats in a T-shaped labyrinth was studied.

[4] = rats, hypodermally 1 mg/kg 14 days
[5] = rats, hypodermally 5 mg/kg 14 days
[6] = rats, hypodermally 5 mg/kg after teaching

## Cl.Nc1c2c(nc3c1CCC3)CCCC2.O [preparation of the invention, 9-amino-2,3,5,6,7,8-hexahydro-1H-cyclopenta(b)quinoline monohydrate hydrochloride]
patients; Alzheimer's and Pick's diseases
  therapeutic effect: An essential amelioration
patients; acute skull-brain trauma
  recovery of psychic functions: faster and more complete recovery of psychic functions
patients; consequences of a vascular injury of brains
  therapeutic effect, memory: an improvement of memory was noted along with a higher working capacity
patients; environmental orientation, past knowledge, involuntary, voluntary exo-experimental and operative memory
  effect on memory parameters: more complete and faster recovering effect
patients; experimental and clinical studies
  effect on the functional symmetry of the brain and activity of the dominating hemisphere: enhanced activity of the dominating hemisphere
patients; patients
  character of recovery (in words): constructive and environmental praxis recovered most efficiently along with reading ability and memory
  recovery of visual versus audio memory (in words): visual memory recovered faster than the audio memory
patients; patients, 5 to 30 mg a day subcutaneous, 30-60 days
  restoration of psychic functions as compared to pyracetam: faster and more complete restoration of psychic functions
[1]; hypodermally 5 mg/kg
  % of knowledge retention: 64.3%
  Number of combinations till appearance of "learning criterion", I teaching: 21 ± 2.7
  Number of combinations till appearance of "learning criterion", II-checking of retention of knowledge: 7.5 ± 0.9
  Number of untaught animals in the group: 3/20
[1]; hypodermally I mg/kg
  % of knowledge retention: 57.5%
  Number of combinations till appearance of "learning criterion", I teaching: 24 ± 2.5
  Number of combinations till appearance of "learning criterion", II-checking of retention of knowledge: 10.2 ± 1.5
  Number of untaught animals in the group: 6/20
dogs
  chronic toxicity: no toxic effect
rabbits
  chronic toxicity: no toxic effect
[2]; rats, 1, 5 and 10 mg/kg
  learning capacity (in words): stimulate the learning capacity of rats
[2]; rats, Tables 1 and 2
  activity on learning versus comparison preparations (in words): substantially more active than 4-aminopyridine, physostigmine, pyracetam and lysyl-vasopressin
[2]; rats, hypodermally 1 mg/kg
  Number of combinations to reach the "learning criterion" in II teaching series (after 7 days): 4.2 + 0.8
  Number of combinations to reach the "learning criterion" in the I teaching series: 14.2 + 1.2
  Number of non-taught animals in the group: 3/20
  Percentage knowledge retention: 70.4%
[2]; [4]
  Number of combinations to reach the "learning criterion" in II teaching series (after 7 days): 3.9 ± 0.8
  Number of combinations to reach the "learning criterion" in the I teaching series: 14.7 ± 1.9
  Number of non-taught animals in the group: 2/20
  Percentage knowledge retention: 72.7%
[2]; rats, hypodermally 5 mg/kg
  Number of combinations to reach the "learning criterion" in II teaching series (after 7 days): 2.6 + 0.3
  Number of combinations to reach the "learning criterion" in the I teaching series: 11.5 + 0.9
  Number of non-taught animals in the group: 1/20
  Percentage knowledge retention: 77.4%
[2]; [5]
  Number of combinations to reach the "learning criterion" in II teaching series (after 7 days): 4.4 ± 0.5
  Number of combinations to reach the "learning criterion" in the I teaching series: 14.8 ± 2.0
  Number of non-taught animals in the group: 2/20
  Percentage knowledge retention: 69.3%
[2]; [6]
  Number of combinations to reach the "learning criterion" in II teaching series (after 7 days): 7.2 ± 0.8
  Number of combinations to reach the "learning criterion" in the I teaching series: 19.0 ± 1.2
  Number of non-taught animals in the group: 1/20
  Percentage knowledge retention: 60%
[2]; rats, hypodermally 10 mg/kg
  Number of combinations to reach the "learning criterion" in II teaching series (after 7 days): 3.0 + 0.5
  Number of combinations to reach the "learning criterion" in the I teaching series: 12.9 + 0.8
  Number of non-taught animals in the group: 0/15
  Percentage knowledge retention: 76.7%
[2]; rats, per os 5 mg/kg
  Number of combinations to reach the "learning criterion" in II teaching series (after 7 days): 6.0 + 0.5
  Number of combinations to reach the "learning criterion" in the I teaching series: 12.8 + 1.7
  Number of non-taught animals in the group: 2/20
  Percentage knowledge retention: 60%
[2]; rats, two-weeks of administration
  stimulating effect as compared to single-time administration (in words): stimulating effect is also enhanced
[3]
  choice of the right side of the labyrinth (in words): statistically markedly increased
[3]; hypodermally 5 mg/kg
  Number of runs to the right, Series I: 10
  Number of runs to the right, Series II: 12
  Number of runs to the right, Series III: 14
[3]; hypodermally 10 mg/kg
  Number of runs to the right, Series I: 9
  Number of runs to the right, Series II: 14
  Number of runs to the right, Series III: 15
